Among the data in US20250195666A1, “MIR-142 COMPOUNDS AND USES THEREOF” (City of Hope, priority 2021, published 2025) are apoptosis and cell growth values, retold here.

This assay relates to miR-142^−/−BCR-ABL LSKs.

Protocol: LSKs from diseased miR-142 null and miR-142 wt BCR-ABL mice were treated with CpG-M-miR-142 (2 μM) or SCR±NIL (2 μM) for 72 h.

As for `Cc1cn(-c2cc(NC(=O)c3ccc(C)c(Nc4nccc(-c5cccnc5)n4)c3)cc(C(F)(F)F)c2)cn1` [NIL, nilotinib], the apoptosis result is listed as “lower apoptosis” and the cell growth result is “higher cell growth”.
